According to patent publication US20230331679A1, “NAPHTHALENE MONOIMIDE COMPOUNDS AND METHODS THEREOF” (JAWAHARLAL NEHRU CENTRE FOR ADVANCED SCIENTIFIC RESEARCH, priority 2020, published 2023):

Columns and labels:
[1] = MALDI mass analysis of brain lysate (BBB crossing); assay type: in vivo; conditions: WT mice, brains collected after 1 h
Protocol: Pharmacokinetics of TGR63 in wild-type (WT) mice was performed to assess its in vivo efficacy. The lethal dose 50 (LD50) of TGR63 was determined in WT mice through intraperitoneal (IP) injection following the Organisation for Economic Cooperation and Development (OECD) guidelines. […] FIG. 7A illustrates the calculation of lethal dose 50% (LD50) of TGR63 through intraperitoneal administration and is represented as table of experimental details and the final observation was done on 14th day. FIG. 7B illustrates the mortality (%) plotted against TGR63 concentration and calculation of LD50. Twenty-five WT mice were segregated in five different groups (G1-5, N= 5 per group) and administered with varying doses of TGR63 (1.7, 5.5, 17.5 56.0 and 179.0 mg/kg body weight, respectively) through IP injection and their survival was monitored for 14 days. The serum stability and blood-brain barrier (BBB) crossing ability of TGR63 were assessed through matrix-assisted laser desorption ionization (MALDI) mass spectrometry analysis of blood and brain samples of vehicle and TGR63 treated mice. […] The partition coefficient (P), a valuable physical property was calculated to predict the BBB permeability. […] The calculated positive logP value predicts the possible BBB crossing ability for TGR63. […]

[2] = molecular target: T1, Aβ42 fibrils (Homo sapiens, UniProt P05067); assay: Dot blot analysis of Aβ42 fibrils with OC antibody; assay type: biochemical
T1 construct: commercially available β-amyloid peptide (1-42), human; purchased marck (so in the source) PP69-.025 mg
T1 sequence (P05067 672-713 limits assumed): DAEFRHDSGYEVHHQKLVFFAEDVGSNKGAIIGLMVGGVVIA
Protocol: The inhibition ability of TGR63 was further supported through dot blot ([…]) analysis which was used to evaluate the amount of Aβ42 fibrils. 10 µM of freshly prepared Aβ42 sample was incubated with TGR63 and alone independently for 48 h without shaking. The incubated samples were dotted on the PVDF membrane and allowed to dry. The PVDF membranes were blocked using 5% skimmed milk in PBS for 1 h at room temperature. The blots were washed (3 times) with 1% of Tween 20 containing PBS (PBST) for 10 min and incubated with OC (1:1000) primary antibody, specific to Aβ42 fibrils at 4° C. for 16 h. Then the unbound primary antibody was removed by PBST wash (3 times) and incubated with HRP conjugated anti-rabbit secondary antibody (Biorad, 1706515), which was diluted 10000 times. Further, nonspecific binding was removed with PBST wash and the blots were developed (chemiluminescent) and analyzed using BioRad ECL kit. […] Quantification of Aβ42 fibrils was done by firstly incubating 10 µM of Aβ42 peptide samples for 48 h at 37° C. The incubated samples were then spotted on a PVDF membrane and probed with OC (fibril specific, 1:1000) antibody to measure the amount of Aβ fibrils.

CN(C)c1ccc(C#Cc2ccc3c4c(cccc24)C(=O)N(CC[N+](C)(C)C)C3=O)cc1 [TGR63, 2-(6-((4-(dimethylamino)phenyl)ethynyl)-1,3-dioxo-1H-benzo[de]isoquinolin-2(3H)-yl)-N,N,N-trimethylethan-1-aminium]
BBB crossing ability (MALDI of brain lysate) [1]: confirmed BBB crossing ability of TGR63
Aβ42 aggregates (quantification of dot blot) ([2]; L2, 10 µM TGR63, 10 µM Aβ42, 48 h at 37° C.): ~ 90%
amount of Aβ42 fibrils decreased (blot image; Aβ42 alone 100%) ([2]; L3, 50 µM TGR63, 10 µM Aβ42, 48 h): ~ 50%
Aβ42 aggregates (quantification of dot blot) ([2]; L3, 50 µM TGR63, 10 µM Aβ42, 48 h at 37° C.): ~ 40%
